In patent US6949516B2, “Dipeptide apoptosis inhibitors and the use thereof” (Cytovia, Inc., priority 1997, dated 2005):

Experiments:
[1] = system: rat transient focal ischemia model; experiment: Rat transient focal ischemia model; assay type: in vivo; conditions: for reduction of cortical infarction: p<0.05
From the text: (i) Preparative Surgery: Male Fischer-344 rats (Harlan Sprague Dawley, Calif.) weighing 200-240 g, were used. Animals were initially anesthetized with 3% halothane in a mixture of 30% oxygen and 70% air. Halothane level were reduced to 1.5% for maintenance of anesthesia throughout surgery. […] (b) Arterial catheter implantation: the femoral artery were cannulated to allow monitoring of the blood pressure, and other physiological conditions include pO2, pCO2, pH, glucose, hematocrite, during ischemia, initial drug administration, and the time of arterial reperfusion. Both arterial and venous catheters were exteriorized through the back of the animal, to allow free movement. (c) A PhysioTel Transmitter (Data Sciences International, Mich.) were implanted into the peritoneal cavity to remotely monitor the body temperature of the animals for 22 hours.
(ii) Physiological parameters: Core body temperature was maintained at 37.5° C. during surgery, using a YSI Reusable Temperature Probe (YSI Co. Inc., Yellow Spring, Ohio) connected to a YSI Temperature Control Unit (Model 73A, YSI Co. Inc., Ohio) and a Electric Heating Pad (Model 756, Sunbean-Oster Co. Inc., Hattiesburg, Miss.). Following ischemia, the PhysioTel Transmitter was activated and core body temperature was recorded every 5 minutes. Systemic blood pressure was monitored throughout surgery, during intravenous drug infusion (bolus), and 1, 2, 3, and 4 hours after the onset of ischemia. Other physiological conditions, including pO2, pCO2, pH, glucose, and hematocrite were examined at the time of arterial occlusion and reperfusion.
(iii) Transient focal ischemia model: Following preparative surgery, a ventral midline cervical incision was made to expose both CCAs. The right CCA was permanently ligated with 4-o silk ligature, while the left CCA was clamped with an atraumatic aneurysm clip. A 1-cm incision perpendicular to and bisecting a line between the lateral canthus of the right eye and the external auditory canal was made. The underlying temporalis muscle was excised and retracted and under direct visualization with the aid of a dissecting microscope (Model SZ-STB1, Olympus, Japan), the middle cerebral artery (MCA) was exposed through a 2 mm burr hole drilled 2-3 mm rostral to the fusion of the zygomatic arch and the squamosal bone. Drilling was done under a continuous irrigation of physiological saline. The dura was cut and retracted to expose the MCA in the rhinal fissure. A Codman micro-aneurysm clip (No. 1) was used to temporarily occlude the MCA as it crosses the rhinal fissure. […] The areas of cortical and subcortical infarction were measured blindly with imaging processing software, and the volume of infarction was calculated by adding up individual measures with known thickness. […]

Caspase-6 = target: T1, Caspase-6 (Homo sapiens, UniProt P55212); experiment: Recombinant caspase assay with Ac-DEVD-AMC, caspase-6; assay type: biochemical; conditions: 10 μM Ac-DEVD-AMC, 30 minutes at 37° C.
T1 construct: purchased PharMington (PharMingen, a Becton division company, San Diego, Calif.)
T1 sequence (P55212 24-179 limits assumed): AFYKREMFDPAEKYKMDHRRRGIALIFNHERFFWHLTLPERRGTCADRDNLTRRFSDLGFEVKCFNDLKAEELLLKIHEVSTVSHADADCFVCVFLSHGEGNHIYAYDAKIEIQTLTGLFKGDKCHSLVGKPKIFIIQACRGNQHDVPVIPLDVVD
Protocol: The inhibitory activity of Cbz-Val-Asp-CH2F in recombinant caspase 3, 6, 7 and 8 obtained from PharMington (a Becton division company, San Diego, Calif.) were measured using Ac-DEVD-AMC (SEQ ID NO:1). The amount of each enzyme per assay was as following: 1 ng caspase3, 15 ng caspase6, 2 ng caspase7 and 60 ng caspase8. The enzyme reaction was conducted in 96-well plate using a caspase buffer (20 mM PIPES, 100 mM NaCl, 10 mM DTT, 1 mM EDTA, 0.1% CHAPS and 10% sucrose, pH 7.2) and the reaction was initiated by adding 10 μM Ac-DEVD-AMC (SEQ ID NO:1) (purchased from Quality Controlled Biochemicals, Inc. Hopkinton, Mass.). Twelve concentrations of Cbz-Val-Asp-CH2F ranged from 30 μM to […] were tested after incubation of the compound with recombinant caspases for 30 minutes at 37° C. […] The data was analyzed using GraphPrism software.

For `CC(C)[C@H](NC(=O)OCc1ccccc1)C(=O)NC(CC(=O)O)C(=O)CF` (stereo partly drawn) [Cbz-Val-Asp-CH2F, Z-Val-Asp-fmk], the “reduction of cortical infarction” value ([1]; Experiment 1: rat, 20 mg/kg IV bolus 10 minutes after onset of ischemia + 5 mg/kg/hr IV infusion for 6 h) was 46%, the “reduction of cortical infarction” value ([1]; Experiment 2: rat, 20 mg/kg IV bolus 10 minutes after onset of ischemia + 5 mg/kg/hr IV infusion for 12 h) was 57% and the “tolerability following acute IV dosing” value ([1]; rat) was “well tolerated”. The “changes in blood pressure, blood gas, or temperature following drug administration” value ([1]; rat, 20 mg/kg IV bolus + 5 mg/kg/hr infusion) was “no changes” and the IC50 (Caspase-6) was 18.4 nM.
